Data published in the kinase profiling compilation of Christmann-Franck et al. (2016).

Legend:
Settings in all cases: compound 10.0 µM
CAMK1D (human) = CAMK1D (human) (UniProt Q8IU85)
CDC2L2 (human) = CDC2L2 (human) (UniProt Q9UQ88)
CDC42BPA (human) = CDC42BPA (human) (UniProt Q5VT25)
CDK5 (human) = CDK5 (human) (UniProt Q00535)
CIT (human) = CIT (human) (UniProt O14578)
CaMK1 (human) = CaMK1 (human) (UniProt Q14012)
DAPK1 (human) = DAPK1 (human) (UniProt P53355)
DAPK2 (human) = DAPK2 (human) (UniProt Q9UIK4)
EPHA8 (human) = EPHA8 (human) (UniProt P29322)
FES (human) = FES (human) (UniProt P07332)
FLT1 (human) = FLT1 (human) (UniProt P17948)
GRK1 (human) = GRK1 (human) (UniProt Q15835)
IGF1R (human) = IGF1R (human) (UniProt P08069)
[1] = molecular target: JAK1 JH1 catalytic (human) (UniProt P23458)
[2] = system: KIT (human), P10721 [V559D]
Sequence of KIT (human), P10721 [V559D] (P10721 whole entry V559D, looked up): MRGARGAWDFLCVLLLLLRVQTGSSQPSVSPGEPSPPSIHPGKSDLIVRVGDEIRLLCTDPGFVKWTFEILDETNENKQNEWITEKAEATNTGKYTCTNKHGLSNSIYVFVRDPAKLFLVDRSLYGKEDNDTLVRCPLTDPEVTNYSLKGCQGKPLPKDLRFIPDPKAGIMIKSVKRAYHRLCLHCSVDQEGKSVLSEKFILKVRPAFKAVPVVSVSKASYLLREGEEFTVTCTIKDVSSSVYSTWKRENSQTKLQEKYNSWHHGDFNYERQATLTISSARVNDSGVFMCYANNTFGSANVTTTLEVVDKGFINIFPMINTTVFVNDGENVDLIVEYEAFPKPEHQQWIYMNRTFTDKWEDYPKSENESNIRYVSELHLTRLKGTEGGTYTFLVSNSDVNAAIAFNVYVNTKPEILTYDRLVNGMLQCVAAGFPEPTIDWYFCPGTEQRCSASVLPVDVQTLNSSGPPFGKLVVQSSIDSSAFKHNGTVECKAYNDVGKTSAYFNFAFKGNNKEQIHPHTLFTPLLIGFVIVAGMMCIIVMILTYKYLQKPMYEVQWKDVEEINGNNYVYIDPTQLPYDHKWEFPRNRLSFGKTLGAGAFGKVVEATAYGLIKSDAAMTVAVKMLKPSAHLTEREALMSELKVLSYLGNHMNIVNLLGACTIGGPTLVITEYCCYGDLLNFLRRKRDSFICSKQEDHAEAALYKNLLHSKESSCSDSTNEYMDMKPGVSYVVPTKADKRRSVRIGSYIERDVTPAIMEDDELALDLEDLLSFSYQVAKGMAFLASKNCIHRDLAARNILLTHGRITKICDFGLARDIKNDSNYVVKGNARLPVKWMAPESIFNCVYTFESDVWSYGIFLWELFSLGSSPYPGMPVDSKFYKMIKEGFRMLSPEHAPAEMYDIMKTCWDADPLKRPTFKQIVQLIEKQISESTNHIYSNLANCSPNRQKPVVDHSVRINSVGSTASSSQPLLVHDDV

MAP2K6 (human) = MAP2K6 (human) (UniProt P52564)
MAP3K15 (human) = MAP3K15 (human) (UniProt Q6ZN16)
MAP4K3 (human) = MAP4K3 (human) (UniProt Q8IVH8)
MAPK10 (human) = MAPK10 (human) (UniProt P53779)
Sequence of MAPK10 (human) (P53779 whole entry, looked up): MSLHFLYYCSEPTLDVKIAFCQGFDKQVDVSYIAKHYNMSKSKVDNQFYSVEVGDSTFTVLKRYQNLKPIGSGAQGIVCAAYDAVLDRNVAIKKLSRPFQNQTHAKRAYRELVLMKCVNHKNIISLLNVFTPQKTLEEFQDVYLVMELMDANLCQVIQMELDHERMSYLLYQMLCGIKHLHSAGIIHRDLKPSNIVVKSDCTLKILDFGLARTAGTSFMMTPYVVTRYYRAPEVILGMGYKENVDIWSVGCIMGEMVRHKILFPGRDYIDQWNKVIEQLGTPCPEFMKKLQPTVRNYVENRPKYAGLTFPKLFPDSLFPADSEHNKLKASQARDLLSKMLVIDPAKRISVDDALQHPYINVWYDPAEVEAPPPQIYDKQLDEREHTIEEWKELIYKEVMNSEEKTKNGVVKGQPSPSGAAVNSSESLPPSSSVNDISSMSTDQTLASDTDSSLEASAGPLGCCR

MAPK8 (human) = MAPK8 (human) (UniProt P45983)
Sequence of MAPK8 (human) (P45983 whole entry, looked up): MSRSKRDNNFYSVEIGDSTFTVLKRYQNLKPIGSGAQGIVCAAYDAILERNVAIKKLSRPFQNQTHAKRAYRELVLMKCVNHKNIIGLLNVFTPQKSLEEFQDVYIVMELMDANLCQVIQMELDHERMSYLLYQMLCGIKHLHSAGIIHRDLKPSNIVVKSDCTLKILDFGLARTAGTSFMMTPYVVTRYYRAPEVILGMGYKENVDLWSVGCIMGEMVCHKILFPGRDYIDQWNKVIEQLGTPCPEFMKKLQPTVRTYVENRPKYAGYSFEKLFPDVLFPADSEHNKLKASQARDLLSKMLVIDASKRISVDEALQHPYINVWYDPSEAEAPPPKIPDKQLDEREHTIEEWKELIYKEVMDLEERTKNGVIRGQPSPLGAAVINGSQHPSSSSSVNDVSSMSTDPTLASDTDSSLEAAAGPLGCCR

MAST1 (human) = MAST1 (human) (UniProt Q9Y2H9)
[3] = system: MET (human), P08581 [Y1235D]
MTOR (human) = MTOR (human) (UniProt P42345)
MYLK4 (human) = MYLK4 (human) (UniProt Q86YV6)
NIM1 (human) = NIM1 (human) (UniProt Q8IY84)
NUAK2 (human) = NUAK2 (human) (UniProt Q9H093)
PHKG1 (human) = PHKG1 (human) (UniProt Q16816)
Sequence of PHKG1 (human) (Q16816 whole entry, looked up): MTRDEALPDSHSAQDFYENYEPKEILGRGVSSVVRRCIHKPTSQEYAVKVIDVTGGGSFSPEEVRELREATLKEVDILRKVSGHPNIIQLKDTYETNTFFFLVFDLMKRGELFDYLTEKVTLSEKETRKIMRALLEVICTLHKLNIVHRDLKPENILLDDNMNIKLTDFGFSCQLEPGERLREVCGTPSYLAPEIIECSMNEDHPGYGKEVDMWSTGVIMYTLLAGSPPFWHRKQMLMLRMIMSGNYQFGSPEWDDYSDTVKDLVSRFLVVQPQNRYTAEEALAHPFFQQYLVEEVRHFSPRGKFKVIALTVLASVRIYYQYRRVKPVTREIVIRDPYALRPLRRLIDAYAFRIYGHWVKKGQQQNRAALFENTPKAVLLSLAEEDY

PIP4K2B (human) = PIP4K2B (human) (UniProt P78356)
PIP5K1C (human) = PIP5K1C (human) (UniProt O60331)
Sequence of PIP5K1C (human) (O60331 whole entry, looked up): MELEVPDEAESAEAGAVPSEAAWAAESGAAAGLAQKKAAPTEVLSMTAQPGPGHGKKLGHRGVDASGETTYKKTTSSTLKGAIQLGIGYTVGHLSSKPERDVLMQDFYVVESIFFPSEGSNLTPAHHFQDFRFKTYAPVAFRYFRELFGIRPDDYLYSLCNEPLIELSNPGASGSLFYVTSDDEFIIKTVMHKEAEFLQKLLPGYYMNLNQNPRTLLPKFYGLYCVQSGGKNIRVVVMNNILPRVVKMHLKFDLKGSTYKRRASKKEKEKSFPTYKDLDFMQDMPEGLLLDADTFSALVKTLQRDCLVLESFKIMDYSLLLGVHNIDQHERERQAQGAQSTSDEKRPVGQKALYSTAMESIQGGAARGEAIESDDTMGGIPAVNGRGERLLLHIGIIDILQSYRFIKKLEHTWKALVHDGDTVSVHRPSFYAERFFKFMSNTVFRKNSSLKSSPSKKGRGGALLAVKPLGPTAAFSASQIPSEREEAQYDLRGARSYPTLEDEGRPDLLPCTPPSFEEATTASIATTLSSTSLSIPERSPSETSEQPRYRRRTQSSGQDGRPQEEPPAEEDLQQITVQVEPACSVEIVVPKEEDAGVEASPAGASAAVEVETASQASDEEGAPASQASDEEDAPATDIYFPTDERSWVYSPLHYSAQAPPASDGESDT

PKN1 (human) = PKN1 (human) (UniProt Q16512)
PRKAA1 (human) = PRKAA1 (human) (UniProt Q13131)
Sequence of PRKAA1 (human) (Q13131 whole entry, looked up): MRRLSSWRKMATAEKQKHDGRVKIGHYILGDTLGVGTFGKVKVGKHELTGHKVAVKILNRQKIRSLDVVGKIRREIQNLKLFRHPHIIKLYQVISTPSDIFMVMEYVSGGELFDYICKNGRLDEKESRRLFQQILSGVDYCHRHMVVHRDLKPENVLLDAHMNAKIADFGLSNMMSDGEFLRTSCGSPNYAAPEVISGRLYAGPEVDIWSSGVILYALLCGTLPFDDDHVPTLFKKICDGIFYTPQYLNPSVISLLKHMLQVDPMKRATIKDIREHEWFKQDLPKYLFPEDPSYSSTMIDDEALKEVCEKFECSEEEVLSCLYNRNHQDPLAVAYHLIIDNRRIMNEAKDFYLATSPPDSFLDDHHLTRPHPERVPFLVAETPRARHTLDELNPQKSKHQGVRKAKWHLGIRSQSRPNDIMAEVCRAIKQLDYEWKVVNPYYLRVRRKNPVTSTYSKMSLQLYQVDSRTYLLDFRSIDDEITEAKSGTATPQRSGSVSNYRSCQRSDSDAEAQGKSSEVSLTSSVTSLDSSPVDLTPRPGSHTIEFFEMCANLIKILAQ

PRKAA2 (human) = PRKAA2 (human) (UniProt P54646)
PRKACA (human) = PRKACA (human) (UniProt P17612)
PRPF4B (human) = PRPF4B (human) (UniProt Q13523)
PTK2 (human) = PTK2 (human) (UniProt Q05397)
Sequence of PTK2 (human) (Q05397 whole entry, looked up): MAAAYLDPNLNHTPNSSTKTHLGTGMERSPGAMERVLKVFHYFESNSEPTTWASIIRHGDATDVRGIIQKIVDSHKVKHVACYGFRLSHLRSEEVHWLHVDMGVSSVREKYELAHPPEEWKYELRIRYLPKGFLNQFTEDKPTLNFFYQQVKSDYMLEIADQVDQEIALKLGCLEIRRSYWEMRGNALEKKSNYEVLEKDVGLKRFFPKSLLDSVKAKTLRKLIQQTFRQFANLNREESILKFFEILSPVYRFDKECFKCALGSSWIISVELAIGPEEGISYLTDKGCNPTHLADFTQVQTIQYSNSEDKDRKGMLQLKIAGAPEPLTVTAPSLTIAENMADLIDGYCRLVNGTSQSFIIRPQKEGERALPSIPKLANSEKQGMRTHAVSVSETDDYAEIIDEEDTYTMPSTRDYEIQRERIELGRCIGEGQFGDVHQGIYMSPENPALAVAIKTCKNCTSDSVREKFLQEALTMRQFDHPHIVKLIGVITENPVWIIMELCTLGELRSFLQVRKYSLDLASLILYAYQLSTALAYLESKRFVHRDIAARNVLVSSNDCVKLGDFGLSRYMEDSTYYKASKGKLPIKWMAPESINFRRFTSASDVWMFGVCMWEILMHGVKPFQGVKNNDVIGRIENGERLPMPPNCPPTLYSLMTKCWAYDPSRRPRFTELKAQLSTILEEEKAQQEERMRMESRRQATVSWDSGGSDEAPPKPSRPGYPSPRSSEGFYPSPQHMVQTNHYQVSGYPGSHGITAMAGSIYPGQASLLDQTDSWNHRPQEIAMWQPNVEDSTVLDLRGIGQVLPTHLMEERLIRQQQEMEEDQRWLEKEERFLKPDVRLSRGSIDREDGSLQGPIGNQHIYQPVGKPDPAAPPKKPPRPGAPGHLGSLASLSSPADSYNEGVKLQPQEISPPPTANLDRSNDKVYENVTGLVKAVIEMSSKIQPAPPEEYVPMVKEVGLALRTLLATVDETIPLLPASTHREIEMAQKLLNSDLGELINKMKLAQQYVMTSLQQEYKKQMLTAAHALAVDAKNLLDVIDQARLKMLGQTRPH

PTK2B (human) = PTK2B (human) (UniProt Q14289)
ROCK2 (human) = ROCK2 (human) (UniProt O75116)
SRPK3 (human) = SRPK3 (human) (UniProt Q9UPE1)
STK3 (human) = STK3 (human) (UniProt Q13188)
STK38 (human) = STK38 (human) (UniProt Q15208)
TNIK (human) = TNIK (human) (UniProt Q9UKE5)
TXK (human) = TXK (human) (UniProt P42681)

Sequence of CaMK1 (human) (Q14012 whole entry, looked up): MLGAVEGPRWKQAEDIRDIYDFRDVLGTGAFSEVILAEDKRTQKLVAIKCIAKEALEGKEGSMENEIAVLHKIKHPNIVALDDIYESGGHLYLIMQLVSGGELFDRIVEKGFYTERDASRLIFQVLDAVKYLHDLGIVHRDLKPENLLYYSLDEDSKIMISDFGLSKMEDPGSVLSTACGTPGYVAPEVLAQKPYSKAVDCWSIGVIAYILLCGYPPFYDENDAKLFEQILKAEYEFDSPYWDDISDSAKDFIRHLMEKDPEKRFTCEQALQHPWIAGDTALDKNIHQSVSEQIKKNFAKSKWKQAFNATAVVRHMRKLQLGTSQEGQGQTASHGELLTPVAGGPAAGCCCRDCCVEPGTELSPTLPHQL

Which per cent of control (CAMK1D (human)) does the source give for `CNC(=O)c1cc(Oc2ccc(NC(=O)Nc3ccc(Cl)c(C(F)(F)F)c3)cc2)cc[n+]1[O-]` here?
The per cent of control was 75%.

And the per cent of control (CDC2L2 (human))?
The per cent of control was 99%.

And the per cent of control (CDC42BPA (human))?
Its per cent of control is 90%.

What about the per cent of control (CDK5 (human)) of the same molecule?
Its per cent of control is 12%.

What about the per cent of control (CIT (human)) of the same molecule?
Its per cent of control is 27%.

And the per cent of control (CaMK1 (human))?
Its per cent of control is 58%.

What about the per cent of control (DAPK1 (human)) of the same molecule?
The per cent of control was 85%.

What about the per cent of control (DAPK2 (human)) of the same molecule?
Its per cent of control is 100%.

What about the per cent of control (EPHA8 (human)) of the same molecule?
The per cent of control was 0.3%.

And the per cent of control (FES (human))?
Its per cent of control is 98%.

What about the per cent of control (FLT1 (human)) of the same molecule?
The per cent of control was 0.65%.

And the per cent of control (GRK1 (human))?
Its per cent of control is 100%.

And the per cent of control (IGF1R (human))?
The per cent of control was 97%.

What about the per cent of control [1] of the same molecule?
The per cent of control was 50%.

What about the per cent of control [2] of the same molecule?
Its per cent of control is 0%.

What about the per cent of control (MAP2K6 (human)) of the same molecule?
Its per cent of control is 55%.

What about the per cent of control (MAP3K15 (human)) of the same molecule?
Its per cent of control is 80%.

What about the per cent of control (MAP4K3 (human)) of the same molecule?
Its per cent of control is 12%.

What about the per cent of control (MAPK10 (human)) of the same molecule?
The per cent of control was 4.4%.

What about the per cent of control (MAPK8 (human)) of the same molecule?
Its per cent of control is 13%.

And the per cent of control (MAST1 (human))?
Its per cent of control is 100%.

And the per cent of control [3]?
The per cent of control was 11%.

And the per cent of control (MTOR (human))?
The per cent of control was 100%.

What about the per cent of control (MYLK4 (human)) of the same molecule?
The per cent of control was 100%.

What about the per cent of control (NIM1 (human)) of the same molecule?
The per cent of control was 100%.

And the per cent of control (NUAK2 (human))?
The per cent of control was 85%.

What about the per cent of control (PHKG1 (human)) of the same molecule?
The per cent of control was 77%.

What about the per cent of control (PIP4K2B (human)) of the same molecule?
The per cent of control was 88%.

And the per cent of control (PIP5K1C (human))?
The per cent of control was 66%.

And the per cent of control (PKN1 (human))?
Its per cent of control is 97%.

And the per cent of control (PRKAA1 (human))?
Its per cent of control is 36%.

What about the per cent of control (PRKAA2 (human)) of the same molecule?
The per cent of control was 49%.

And the per cent of control (PRKACA (human))?
The per cent of control was 100%.

And the per cent of control (PRPF4B (human))?
The per cent of control was 99%.

And the per cent of control (PTK2 (human))?
The per cent of control was 97%.

What about the per cent of control (PTK2B (human)) of the same molecule?
The per cent of control was 91%.

And the per cent of control (ROCK2 (human))?
Its per cent of control is 82%.

What about the per cent of control (SRPK3 (human)) of the same molecule?
The per cent of control was 86%.

And the per cent of control (STK3 (human))?
Its per cent of control is 100%.

And the per cent of control (STK38 (human))?
Its per cent of control is 100%.

What about the per cent of control (TNIK (human)) of the same molecule?
Its per cent of control is 3.9%.

What about the per cent of control (TXK (human)) of the same molecule?
Its per cent of control is 78%.

For `CNC(=O)c1cc(Oc2ccc(NC(=O)Nc3ccc(Cl)c(C(F)(F)F)c3)cc2)ccn1`, which per cent of control (CAMK1D (human)) is on record?
Its per cent of control is 88%.

And the per cent of control (CDC2L2 (human))?
Its per cent of control is 77%.

And the per cent of control (CDC42BPA (human))?
The per cent of control was 96%.

What about the per cent of control (CDK5 (human)) of the same molecule?
The per cent of control was 22%.

What about the per cent of control (CIT (human)) of the same molecule?
The per cent of control was 20%.

And the per cent of control (CaMK1 (human))?
Its per cent of control is 87%.

And the per cent of control (DAPK1 (human))?
The per cent of control was 95%.

What about the per cent of control (DAPK2 (human)) of the same molecule?
Its per cent of control is 100%.

What about the per cent of control (EPHA8 (human)) of the same molecule?
The per cent of control was 0.9%.

What about the per cent of control (FES (human)) of the same molecule?
Its per cent of control is 72%.

And the per cent of control (FLT1 (human))?
The per cent of control was 0.7%.

And the per cent of control (GRK1 (human))?
Its per cent of control is 100%.

And the per cent of control (IGF1R (human))?
Its per cent of control is 100%.

And the per cent of control [1]?
The per cent of control was 42%.

What about the per cent of control [2] of the same molecule?
The per cent of control was 0%.

And the per cent of control (MAP2K6 (human))?
The per cent of control was 73%.

What about the per cent of control (MAP3K15 (human)) of the same molecule?
The per cent of control was 79%.

And the per cent of control (MAP4K3 (human))?
The per cent of control was 48%.

What about the per cent of control (MAPK10 (human)) of the same molecule?
The per cent of control was 90%.

What about the per cent of control (MAPK8 (human)) of the same molecule?
The per cent of control was 88%.

What about the per cent of control (MAST1 (human)) of the same molecule?
The per cent of control was 100%.

What about the per cent of control [3] of the same molecule?
Its per cent of control is 60%.

What about the per cent of control (MTOR (human)) of the same molecule?
Its per cent of control is 100%.

And the per cent of control (MYLK4 (human))?
Its per cent of control is 88%.

What about the per cent of control (NIM1 (human)) of the same molecule?
Its per cent of control is 100%.

And the per cent of control (NUAK2 (human))?
Its per cent of control is 100%.

What about the per cent of control (PHKG1 (human)) of the same molecule?
Its per cent of control is 73%.

What about the per cent of control (PIP4K2B (human)) of the same molecule?
Its per cent of control is 89%.

And the per cent of control (PIP5K1C (human))?
The per cent of control was 79%.

What about the per cent of control (PKN1 (human)) of the same molecule?
The per cent of control was 100%.

And the per cent of control (PRKAA1 (human))?
The per cent of control was 32%.

What about the per cent of control (PRKAA2 (human)) of the same molecule?
Its per cent of control is 60%.

What about the per cent of control (PRKACA (human)) of the same molecule?
Its per cent of control is 100%.

And the per cent of control (PRPF4B (human))?
Its per cent of control is 94%.

And the per cent of control (PTK2 (human))?
The per cent of control was 100%.

And the per cent of control (PTK2B (human))?
The per cent of control was 99%.

What about the per cent of control (ROCK2 (human)) of the same molecule?
The per cent of control was 90%.

What about the per cent of control (SRPK3 (human)) of the same molecule?
Its per cent of control is 84%.

What about the per cent of control (STK3 (human)) of the same molecule?
The per cent of control was 100%.

What about the per cent of control (STK38 (human)) of the same molecule?
Its per cent of control is 100%.

And the per cent of control (TNIK (human))?
The per cent of control was 21%.

And the per cent of control (TXK (human))?
The per cent of control was 98%.
